Experimental data reported in BindingDB's records for doi:10.1021/acs.jnatprod.5b00062 (Albert-Ludwigs-University of Freiburg, 2015).

Assays:
[1] = molecular target: Sodium/potassium-transporting ATPase subunit alpha-1 (Rattus norvegicus, UniProt P06685); experiment: Inhibition of Wistar rat kidney Na+,K+-ATPase alpha1 after 2 hrs
[2] = molecular target: Sarcoplasmic/endoplasmic reticulum calcium ATPase 1 (Rattus norvegicus, UniProt Q64578); experiment: Inhibition of Wistar rat EDL muscle SERCA1a after 1 hr
Sarcoplasmic/endoplasmic reticulum calcium ATPase 1, sequence (Q64578 whole entry): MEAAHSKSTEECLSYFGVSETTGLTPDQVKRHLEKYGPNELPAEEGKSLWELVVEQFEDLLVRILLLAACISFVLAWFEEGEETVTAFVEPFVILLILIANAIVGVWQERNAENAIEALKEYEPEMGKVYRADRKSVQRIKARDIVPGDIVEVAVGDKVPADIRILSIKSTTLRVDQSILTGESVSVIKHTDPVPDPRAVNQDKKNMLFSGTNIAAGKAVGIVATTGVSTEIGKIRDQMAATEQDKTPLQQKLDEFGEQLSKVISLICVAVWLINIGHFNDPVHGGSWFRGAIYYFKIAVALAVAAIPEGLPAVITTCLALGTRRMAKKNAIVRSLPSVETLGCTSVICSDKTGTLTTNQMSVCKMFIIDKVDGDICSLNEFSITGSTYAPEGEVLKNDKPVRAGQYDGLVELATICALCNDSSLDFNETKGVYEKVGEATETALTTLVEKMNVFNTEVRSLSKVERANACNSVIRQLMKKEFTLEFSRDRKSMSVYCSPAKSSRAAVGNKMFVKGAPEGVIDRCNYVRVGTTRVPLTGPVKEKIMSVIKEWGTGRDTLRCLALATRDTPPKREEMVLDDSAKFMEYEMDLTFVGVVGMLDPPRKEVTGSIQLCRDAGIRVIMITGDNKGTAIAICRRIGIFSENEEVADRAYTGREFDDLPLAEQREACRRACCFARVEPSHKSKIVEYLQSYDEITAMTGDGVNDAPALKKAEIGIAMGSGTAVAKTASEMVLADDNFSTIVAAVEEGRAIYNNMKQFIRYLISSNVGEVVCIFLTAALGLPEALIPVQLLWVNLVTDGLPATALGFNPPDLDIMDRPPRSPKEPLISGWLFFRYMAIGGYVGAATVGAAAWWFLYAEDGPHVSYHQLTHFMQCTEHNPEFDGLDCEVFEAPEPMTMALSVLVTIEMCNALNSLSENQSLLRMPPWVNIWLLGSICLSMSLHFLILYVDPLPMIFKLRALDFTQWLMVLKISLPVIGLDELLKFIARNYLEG

For `CC[C@H](C)[C@H]1O[C@]2(CC[C@@H]1C)C[C@@H]1C[C@@H](C/C=C(\C)[C@@H](O[C@H]3C[C@H](OC)[C@@H](O[C@H]4C[C@H](OC)[C@@H](O)[C@H](C)O4)[C@H](C)O3)[C@@H](C)/C=C/C=C3\CO[C@@H]4[C@H](O)C(C)=C[C@@H](C(=O)O1)[C@]34O)O2` [ABAMECTIN], the IC50 [1] was 8.23 µM and the IC50 [2] was 16.9 µM.
